From PubChem BioAssay (NCI)
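Results reflect a 48-hour exposure of cells in 96-well plates to compound at five concentrations. TGI: concentration producing complete growth inhibition.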

Tests used:
Assay in all cases: NCI tumour cell line growth inhibition, 48 h
SNB-75 CNS = tested on: SNB-75 CNS
HT29 colon = tested on: HT29 colon
K-562 leukemia = tested on: K-562 leukemia
NCI-H522 lung = tested on: NCI-H522 lung
OVCAR-3 ovarian = tested on: OVCAR-3 ovarian
SK-MEL-5 melanoma = tested on: SK-MEL-5 melanoma
EKVX NSCLC = tested on: EKVX NSCLC
RPMI-8226 leukemia = tested on: RPMI-8226 leukemia
NCI-H226 lung = tested on: NCI-H226 lung
HCC-2998 colon = tested on: HCC-2998 colon
OVCAR-8 ovarian = tested on: OVCAR-8 ovarian
UO-31 renal = tested on: UO-31 renal
HCT-116 colon = tested on: HCT-116 colon
XF 498 CNS = tested on: XF 498 CNS
HOP-92 NSCLC = tested on: HOP-92 NSCLC
SNB-78 CNS = tested on: SNB-78 CNS
LOX IMVI melanoma = tested on: LOX IMVI melanoma
COLO 205 colon = tested on: COLO 205 colon
SF-539 CNS = tested on: SF-539 CNS
SN12C renal = tested on: SN12C renal
UACC-257 melanoma = tested on: UACC-257 melanoma
SK-MEL-2 melanoma = tested on: SK-MEL-2 melanoma
MOLT-4 leukemia = tested on: MOLT-4 leukemia
UACC-62 melanoma = tested on: UACC-62 melanoma
M19-MEL melanoma = tested on: M19-MEL melanoma
SNB-19 CNS = tested on: SNB-19 CNS
HCT-15 colon = tested on: HCT-15 colon
KM12 colon = tested on: KM12 colon
SK-MEL-28 melanoma = tested on: SK-MEL-28 melanoma
CCRF-CEM leukemia = tested on: CCRF-CEM leukemia
IGROV1 ovarian = tested on: IGROV1 ovarian
SR leukemia = tested on: SR leukemia
DMS 273 small cell lung = tested on: DMS 273 small cell lung
LXFL 529 NSCLC = tested on: LXFL 529 NSCLC
RXF-631 renal = tested on: RXF-631 renal
NCI-H23 lung = tested on: NCI-H23 lung
SF-295 CNS = tested on: SF-295 CNS
NCI-H460 lung = tested on: NCI-H460 lung
M14 melanoma = tested on: M14 melanoma
HOP-18 NSCLC = tested on: HOP-18 NSCLC
ACHN renal = tested on: ACHN renal
786-0 renal = tested on: 786-0 renal
DLD-1 colon = tested on: DLD-1 colon
MALME-3M melanoma = tested on: MALME-3M melanoma
U251 CNS = tested on: U251 CNS
KM20L2 colon = tested on: KM20L2 colon
SW-620 colon = tested on: SW-620 colon
RXF 393 renal = tested on: RXF 393 renal
OVCAR-5 ovarian = tested on: OVCAR-5 ovarian
SF-268 CNS = tested on: SF-268 CNS
TK-10 renal = tested on: TK-10 renal
A549 NSCLC = tested on: A549 NSCLC
HL-60(TB) leukemia = tested on: HL-60(TB) leukemia
SK-OV-3 ovarian = tested on: SK-OV-3 ovarian
CAKI-1 renal = tested on: CAKI-1 renal
OVCAR-4 ovarian = tested on: OVCAR-4 ovarian
A498 renal = tested on: A498 renal
DMS 114 small cell lung = tested on: DMS 114 small cell lung

Measured: TGI

COc1ccc2c(C(=O)O)cc3cc(OC)c(OC)cc3c2c1
not listed: CAKI-1 renal | OVCAR-4 ovarian | A498 renal | DMS 114 small cell lung
> 100 µM: all other assays above

Cc1cccc(C)c1NC(=O)CCCC(=O)C1CCC/C1=N\NC(=O)C(=O)NN (stereo unspecified)
not listed: NCI-H522 lung | HOP-92 NSCLC | UACC-62 melanoma | M19-MEL melanoma | IGROV1 ovarian | SR leukemia
> 100 µM: all other assays above
